Columns and labels:
[1] = target: T1, Ubc3 (Homo sapiens, UniProt P49427); experiment: E2 ubiquitin charging (Ubc3~Ub conjugates); format: biochemical; conditions: 50 μM inhibitor
T1 construct: purchased Boston Biochem
T1 sequence (P49427 1-236): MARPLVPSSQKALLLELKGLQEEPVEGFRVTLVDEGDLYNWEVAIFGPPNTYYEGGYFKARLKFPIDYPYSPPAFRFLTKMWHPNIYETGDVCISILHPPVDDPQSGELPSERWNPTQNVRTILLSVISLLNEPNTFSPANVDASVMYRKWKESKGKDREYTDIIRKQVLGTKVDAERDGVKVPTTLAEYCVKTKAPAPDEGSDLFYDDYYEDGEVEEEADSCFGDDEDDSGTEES
Description: In vitro reconstituted assays were performed as previously described (Dorrello et al., “S6K1- and betaTRCP-mediated Degradation of PDCD4 Promotes Protein Translation and Cell Growth,” Science 314:467-471 (2006), which is hereby incorporated by reference in their entirety) with the exceptions of the use of (1) unlabeled proteins (wild-type and mutant Skp2 and Cks1, p27, Flag-βTrCP, and HA-PDCD4) generated by in vitro transcription-translation (TNT T7 Coupled Reticulocyte Lysate System, Promega); (2) chain elongation with non-methylated ubiquitin; and (3) immunoblotting to detect poly-ubiquitylation. The following reagents were obtained from Boston Biochem: UBE1, His-UbcH3, His-UbcH5c, Ubiquitin, and Ubiquitin Aldehyde. Additional reagents include CDK2/CyclinE1 (Sigma-Aldrich), S6K (Invitrogen), Okadaic acid (Sigma), and DMSO (Sigma-Aldrich). […] Reactions were stopped in nondenaturing 2× Sample Buffer, with the addition of 10% Beta-mercaptoethanol as indicated, and analyzed by Western blotting.

[2] = target: T2, MDM2 (Homo sapiens, UniProt Q00987); experiment: MDM2 p53 in vitro ubiquitylation counter-screen; format: biochemical; conditions: 50 μM inhibitor
T2 construct: purchased Boston Biochem
Description: p53 ubiquitylation was carried out with the p53 Ubiquitylation Kit (Boston Biochem) following manufacturers protocol. Immunoblotting was performed using mouse monoclonal p53 (Santa Cruz) and rabbit polyclonal MDM2 (Santa Cruz).

[3] = system: p27 in 501 Mel, SK-MEL-147, and SK-MEL-173; experiment: Immunoblot of steady state protein levels in metastatic melanoma cell lines; format: cell-based, human; conditions: 10 μM inhibitor; melanoma cells
Description: 501 Mel cells were also treated with MG-132 (a proteasome inhibitor) to confirm that p27 and p21 induction were responsive to known UPS inhibitors (FIG. 4A, right). […] Thus, treatment of cells with inhibitors targeting the Skp2-Cks1 interface induces protein levels of specific Skp2-Cks1 substrates.
Whole cell extracts were prepared and immunoblotted as previously described Dorrello et al., “S6K1- and betaTRCP-mediated Degradation of PDCD4 Promotes Protein Translation and Cell Growth,” Science 314:467-471 (2006), which is hereby incorporated by reference in its entirety. For knockdown of Skp2 or p27, shRNAs were induced with 2 ng/ml doxycycline for 48 hours, with the last 16 hours co-treated with 0.1% Vehicle or 10 μM inhibitors as indicated. For cycloheximide chase, cells were pretreated 16 h with 0.1% Vehicle or 10 μM inhibitors, followed by 20 ng/ml cycloheximide (Sigma) and whole cell extracts collected for each time point. […] Scanning densitometry was performed on immunoblots using Image J software. For cell cycle analysis, cells were treated with 0.1% Vehicle or 10 μM inhibitors for 16 h. 1×10^6 cells were fixed in 70% ethanol for 2 h, treated with 200 μg/ml RNase A (Invitrogen) for 30 minutes, and stained with 20 μg/ml Propidium Iodine (Sigma). All samples were assayed in triplicates. Signal was detected using the Becton Dickson LSRII flow cytometer and cell cycle profiles were analyzed with FloJo.

[4] = target: T3, Skp2-p27 interaction (Homo sapiens, UniProt P61024+Q13309); experiment: p27 binding to HA-Skp2 (HA-immunoprecipitation); conditions: for p27 binding to Skp2: 10 μM, HA-Skp2 and Cks1 pretreated before p27-pT187, without ubiquitylation
T3 construct: made in house; host or cells: cell-free: rabbit reticulocyte lysate (TNT T7 Coupled Reticulocyte Lysate System, Promega) from pcDNA3.1 plasmids
Description: (§1) In vitro ubiquitylation assays were incubated with anti-HA affinity matrix (Roche) in IP buffer (50 mM Tris pH 7.6, 150 mM NaCl, 0.1% NP40, and Roche Complete EDTA-free protease tablet) for 16 h at 4° C. Beads were washed 3× with IP buffer and eluted with 2×SDS Sample Buffer (Boston Bioproducts) and 10% Beta-mercaptoethanol. For binding without ubiquitylation, HA-Skp2 IVT (10 μl) and Cks1 IVT (10 μl) were preincubated with anti-HA affinity matrix in IP buffer for 2 hours, with the addition of p27 kinase reaction (10 μl) for another 16 h incubation at 4° C. All reactions were analyzed after SDS/PAGE by western blotting. Where indicated, Skp2 and Cks1 were pretreated with 10 μM inhibitors for 30 minutes. Kinase reactions were performed with p27 IVT (10 μl) and 0.5 μg/ul CyclinE/CDK2 in kinase buffer (50 mM Tris HCL pH 7.5, 10 mM MgCl2, 2 mM ATP, 2.5 μM Okadaic Acid, and 0.6 mM DTT) at 30° C. for 1 h.

[5] = target: T4, CyclinE/CDK2 (Homo sapiens, UniProt P24941); experiment: CyclinE/CDK2 kinase assay (phospho-T187 p27); format: biochemical; conditions: 50 μM inhibitor
T4 construct: purchased Sigma-Aldrich
Description: as §1

[6] = system: p27 in ECC-1 cells; experiment: p27 immunoblot in ECC-1 cells (whole cell lysates, nuclear and cytoplasmic fractions); conditions: ECC-1; for p27 increase over control at optimal concentration: 10 μM (FIG. 11B); for Nuclear p27 increase over the control in presence of E2: 10 μM compound plus 1 nM E2; for Nuclear p27 increase over the control in presence of E2 / Decrease of cytoplasmic p27 levels: 18 h (FIG. 14C); for p27 protein levels over Vehicle control: 10 μM for 18 h, whole cell lysates (FIG. 11A); for Decrease of cytoplasmic p27 levels: 10 μM; for Increase of nuclear p27 compared to Vehicle control: nuclear fraction (FIG. 11C)
Description: The endometrial carcinoma cell line (derived from a well-differentiated endometrioid Type I ECA) ECC-1 cells (ATCC, Manassas, Va.) were plated at a density of 3×10^5/well/6-well plate and grown in DMEM:F12 supplemented with 10% FBS (BioWest, Ocala, Fla.). The cell line was passaged in the laboratory for fewer than 6 months after receipt. […] ECAs were plated at a density of 2.2×10^6 cells/6-well Primaria® plates (BD Biosciences, San Jose, Calif.) in McCoys 5A media without phenol red containing 10% charcoal-stripped FBS, 2 mM L-Glutamine (Invitrogen) and antimycotic antibiotic solution (Mediatech, Hendon, Va.).
For subcellular fractionation, following treatments, cells were separated into nuclear and cytoplasmic fractions using the NE-PER kit (Thermo Scientific), and 10 μg cytoplasmic and nuclear protein fractions were loaded onto SDS-PAGE for immunoblotting. […] The membranes were incubated with peroxidase-conjugated goat anti-rabbit or goat anti-mouse secondary antibodies in TBST (1:2000; Thermo Scientific). […] Protein bands were resolved using the SuperSignal West Dura kit (Thermo Scientific), visualized by exposure to X-ray film (HyBlot; Denville Scientific, Denville, N.J.), and following densitometric scanning (Kodak Logic-100), the protein bands were quantified by normalizing to β-actin and compared to the untreated control, and the values represented by the graphs of relative protein levels compared to actin in each well and shown as % of Vehicle control.

T3 sequence (Q13309 whole entry): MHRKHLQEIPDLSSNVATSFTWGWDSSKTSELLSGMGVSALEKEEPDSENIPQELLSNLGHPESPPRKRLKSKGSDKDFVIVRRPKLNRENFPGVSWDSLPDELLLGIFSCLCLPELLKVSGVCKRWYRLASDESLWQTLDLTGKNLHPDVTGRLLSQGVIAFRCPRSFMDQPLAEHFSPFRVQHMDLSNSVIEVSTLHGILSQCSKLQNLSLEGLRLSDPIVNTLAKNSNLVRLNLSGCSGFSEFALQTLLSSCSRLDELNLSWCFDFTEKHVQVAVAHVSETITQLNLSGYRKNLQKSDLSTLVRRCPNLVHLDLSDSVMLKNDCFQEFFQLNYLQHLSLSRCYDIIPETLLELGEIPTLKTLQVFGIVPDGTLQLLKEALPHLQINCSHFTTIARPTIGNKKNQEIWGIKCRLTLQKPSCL
T3 sequence (P61024 whole entry): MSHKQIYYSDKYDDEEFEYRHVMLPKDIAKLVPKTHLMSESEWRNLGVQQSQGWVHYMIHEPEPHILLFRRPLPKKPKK
T3 sequence (P63208 whole entry partner): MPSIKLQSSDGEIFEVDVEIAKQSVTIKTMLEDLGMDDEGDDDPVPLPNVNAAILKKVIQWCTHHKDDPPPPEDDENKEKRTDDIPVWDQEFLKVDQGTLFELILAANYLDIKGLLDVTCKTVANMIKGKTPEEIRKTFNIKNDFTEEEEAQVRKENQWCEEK
T3 sequence (Q13616 whole entry partner): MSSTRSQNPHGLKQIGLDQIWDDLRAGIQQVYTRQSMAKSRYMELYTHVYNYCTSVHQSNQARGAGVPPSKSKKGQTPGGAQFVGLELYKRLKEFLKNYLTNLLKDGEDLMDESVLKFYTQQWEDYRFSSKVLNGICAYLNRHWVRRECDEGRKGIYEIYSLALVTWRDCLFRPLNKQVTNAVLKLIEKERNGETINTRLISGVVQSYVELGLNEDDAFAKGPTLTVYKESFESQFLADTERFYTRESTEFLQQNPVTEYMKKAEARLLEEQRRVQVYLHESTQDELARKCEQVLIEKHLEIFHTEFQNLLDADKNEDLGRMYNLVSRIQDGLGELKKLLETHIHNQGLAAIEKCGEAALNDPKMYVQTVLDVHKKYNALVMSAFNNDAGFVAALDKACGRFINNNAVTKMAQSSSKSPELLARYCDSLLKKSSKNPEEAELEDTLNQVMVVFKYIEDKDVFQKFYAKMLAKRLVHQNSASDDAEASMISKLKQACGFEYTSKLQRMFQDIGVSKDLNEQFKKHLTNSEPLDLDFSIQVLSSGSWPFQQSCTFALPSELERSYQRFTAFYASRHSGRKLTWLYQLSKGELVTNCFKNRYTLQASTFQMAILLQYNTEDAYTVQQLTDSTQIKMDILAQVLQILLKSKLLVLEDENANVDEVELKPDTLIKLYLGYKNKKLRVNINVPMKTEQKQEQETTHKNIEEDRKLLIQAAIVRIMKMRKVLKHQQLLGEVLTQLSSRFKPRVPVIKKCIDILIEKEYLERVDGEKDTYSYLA
T3 sequence (P62877 whole entry partner): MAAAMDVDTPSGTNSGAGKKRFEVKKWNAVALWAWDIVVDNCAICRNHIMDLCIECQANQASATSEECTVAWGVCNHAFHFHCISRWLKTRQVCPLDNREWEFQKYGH
T2 sequence (Q00987 whole entry, species assumed): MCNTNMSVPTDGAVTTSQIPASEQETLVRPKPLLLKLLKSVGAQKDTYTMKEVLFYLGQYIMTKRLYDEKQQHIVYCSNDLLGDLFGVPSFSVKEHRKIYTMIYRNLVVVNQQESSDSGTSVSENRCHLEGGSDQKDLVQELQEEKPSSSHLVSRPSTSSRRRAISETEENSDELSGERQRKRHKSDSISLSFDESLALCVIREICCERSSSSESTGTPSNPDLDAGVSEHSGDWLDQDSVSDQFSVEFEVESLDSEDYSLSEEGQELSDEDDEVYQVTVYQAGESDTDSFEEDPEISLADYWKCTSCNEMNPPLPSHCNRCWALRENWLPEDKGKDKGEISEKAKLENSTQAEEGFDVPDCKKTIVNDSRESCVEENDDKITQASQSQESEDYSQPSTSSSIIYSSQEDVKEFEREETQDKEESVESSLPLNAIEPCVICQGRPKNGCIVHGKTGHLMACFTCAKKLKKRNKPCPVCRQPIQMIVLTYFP

Amount of p27 interacting with Skp2 ([4]; 50 μM, HA-immunoprecipitates of ubiquitylation assays) | Structure (SMILES) | E2 charging (Ubc3~Ub) [1] | MDM2 activity (p53 poly-ubiquitylation) [2] | p27 protein induction [3] | p27 binding to Skp2 [4] | CyclinE/CDK2 activity (phospho-T187 p27) [5] | Levels of Skp2 [6] | p27 increase over control at optimal concentration [6] | Nuclear p27 increase over the control in presence of E2 [6] [fold] | p27 protein levels over Vehicle control [6] | Decrease of cytoplasmic p27 levels [6] | Increase of nuclear p27 compared to Vehicle control ([6]; 18 h) [fold] | Concentration inducing p27 to the same level as the proteasome inhibitor ([6]; 24 hours, compared to 1 μM Lactacystin) [µM] | Cytoplasm p27, time course ([6]; by 18 h (FIG. 15A)) | Nuclear p27, time course ([6]; by 18 h (FIG. 15A)) | Increase of cytoplasm p27 ([6]; 18 h, cytoplasmic fraction (FIG. 11C)) [fold]
reduced the amount of p27 | O=C(O)COc1ccc(Br)cc1C=C1SC(=S)N(Cc2cccnc2)C1=O [Compound C1] | unaffected | not blocked | induce p27 protein | reduce p27 binding to Skp2 | not blocked |  |  |  |  |  |  |  |  |  | 
 | COC(=O)C1=C(C)N(c2ccc(Br)cc2)C(=O)C1=Cc1ccccc1O [Compound C2] | unaffected | not blocked | induce p27 protein | reduce p27 binding to Skp2 | not blocked | do not effect the levels of Skp2 | 2.3 | ~2 | increase p27 protein levels | approximately 33% | 1.8 | ≤ 0.1 | half | doubled | 
 | O=C(O)COc1ccc(C=C2SC(=O)N(CC(=O)c3ccc(Cl)cc3)C2=O)cc1 [Compound C16] | unaffected | not blocked | induce p27 protein | reduce p27 binding to Skp2 | not blocked |  |  |  | increase p27 protein levels |  | 2.2 |  |  |  | 2.7
 | O=C(NN=Cc1cc(Br)cc(Br)c1O)C(=Cc1ccccc1O)NC(=O)c1ccccc1 [Compound C20] | unaffected | not blocked | induce p27 protein | reduce p27 binding to Skp2 | not blocked | do not effect the levels of Skp2 | 2.2 | ~2 | increase p27 protein levels | approximately 33% | 2.2 |  |  |  | 

Reference: patent publication US9261497B2, “Method of treating cancer with modulators of SCFSkp2” (New York University, priority 2012, dated 2016)
